Laboratory results as given in ChEMBL document CHEMBL5390306, “Development of Conformationally Restricted Negamycin Derivatives for Potent Readthrough Activity” (ACS Med Chem Lett, 2023).
Active and inactive are the calls of the source. The rule behind the calls is not given here.

Assays:
Format in all cases: functional, cell-based
[1] = test system: Premature termination codon; assay: Readthrough activity against UGA type PTC 5'-TTGAAAGAGCAATAAAATGGCTTCAAC-3' from DMD mdx mouse overexpressed in COS7 cells assessed as ratio of luciferase activity to beta-galactosidase activity at 200 uM incubated for 48 hrs by Dual luciferase reporter assay
[2] = test system: Premature termination codon; assay: Readthrough activity against UGA type PTC 5'-TTGAAAGAGCAATAAAATGGCTTCAAC-3' from DMD mdx mouse overexpressed in COS7 cells assessed as ratio of luciferase activity to beta-galactosidase activity at 6.25 to 200 uM incubated for 48 hrs by Dual luciferase reporter assay; conditions: dose 6.25-200 µM
[3] = test system: Premature termination codon; assay: Readthrough activity against UGA type PTC 5'-TTGAAAGAGCAATAAAATGGCTTCAAC-3' from DMD mdx mouse overexpressed in COS7 cells assessed as ratio of luciferase activity to beta-galactosidase activity incubated for 48 hrs by Dual luciferase reporter assay; conditions: dose 6.25-200 µM
[4] = test system: Premature termination codon; assay: Readthrough activity against UAG type PTC 5'-TTGAAAGAGCAATAAAATGGCTTCAAC-3' from DMD mdx mouse overexpressed in COS7 cells assessed as ratio of luciferase activity to beta-galactosidase activity at 200 uM incubated for 48 hrs by Dual luciferase reporter assay
[5] = test system: Premature termination codon; assay: Readthrough activity against UAA type PTC 5'-TTGAAAGAGCAATAAAATGGCTTCAAC-3' from DMD mdx mouse overexpressed in COS7 cells assessed as ratio of luciferase activity to beta-galactosidase activity at 200 uM incubated for 48 hrs by Dual luciferase reporter assay
[6] = test system: Premature termination codon; assay: Readthrough activity against UGA type PTC 5'-TTGAAAGAGCAATAAAATGGCTTCAAC-3' from DMD mdx mouse overexpressed in COS7 cells assessed as readthrough efficiency at 200 uM incubated for 48 hrs by Dual luciferase reporter assay relative to control
[7] = test system: Premature termination codon; assay: Potency index, ratio of G418 to test compound for readthrough activity against UGA type PTC 5'-TTGAAAGAGCAATAAAATGGCTTCAAC-3' from DMD mdx mouse overexpressed in COS7 cells at 200 uM incubated for 48 hrs by Dual luciferase reporter assay
[8] = test system: Premature termination codon; assay: Potency index, ratio of 2,6-diaminopurine to test compound for readthrough activity against UGA type PTC 5'-TTGAAAGAGCAATAAAATGGCTTCAAC-3' from DMD mdx mouse overexpressed in COS7 cells at 200 uM incubated for 48 hrs by Dual luciferase reporter assay

| SMILES | Ratio [1] | Ratio [4] | Ratio [5] | other results |
| --- | --- | --- | --- | --- |
| CN(CC(=O)O)NC(=O)C[C@@H](NC(=O)[C@@H](N)CCCCCCCO)[C@H]1C[C@H]1CN | 3.25 |  |  |  |
| CC(C)C[C@@H](N)C(=O)N[C@H](CC(=O)NN(C)CC(=O)O)[C@H]1C[C@H]1CN | 1.01 |  |  |  |
| O=C(O)c1cccc(-c2noc(-c3ccccc3F)n2)c1 |  |  |  | Activity [2]: Active |
| CCCCCC/C=C/C[C@H](N)C(=O)N[C@H](CC(=O)NN(C)CC(=O)O)[C@H]1C[C@H]1CN | 16.9 |  |  |  |
| CN[C@@H]1[C@@H](O)[C@@H](O[C@@H]2[C@@H](O)[C@H](O[C@H]3O[C@H]([C@@H](C)O)[C@@H](O)[C@H](O)[C@H]3N)[C@@H](N)C[C@H]2N)OC[C@]1(C)O | 6.01 | 4.68 | 4.5 | Activity [3]: Dose-Dependent Effect; Activity [6]: 1.71% |
| CCCCCCCCC[C@H](N)C(=O)N[C@H](CC(=O)NN(C)CC(=O)O)[C@H]1C[C@H]1CN | 23 | 11.4 | 1.81 | Activity [3]: Dose-Dependent Effect; fold change (FC) [7]: 2; fold change (FC) [8]: 2; Activity [6]: 2.88% |
| CN(CC(=O)O)NC(=O)C[C@@H](N)CCCN | 2.69 | 1.95 | 1.22 |  |
| COCCCCCCC[C@H](N)C(=O)N[C@H](CC(=O)NN(C)CC(=O)O)[C@H]1C[C@H]1CN | 1.94 |  |  |  |
| CN(CC(=O)O)NC(=O)C[C@@H](N)[C@H]1C[C@H]1CN | 8.36 | 6.24 | 1.3 | Activity [3]: Dose-Dependent Effect |
| CCCC(=O)NCCCC[C@H](N)C(=O)N[C@H](CC(=O)NN(C)CC(=O)O)[C@H]1C[C@H]1CN | 2.05 |  |  |  |
| CC(C)C[C@H](N)C(=O)N[C@H](CC(=O)NN(C)CC(=O)O)[C@H]1C[C@H]1CN | 3.08 |  |  |  |
| CCCCCCCCC[C@H](N)C(=O)N[C@@H](CCCN)CC(=O)NN(C)CC(=O)O | 19.5 |  |  |  |
| Nc1nc(N)c2nc[nH]c2n1 |  |  |  | Activity [3]: Dose-Dependent Effect |
| CN(CC(=O)O)NC(=O)C[C@H](N)C[C@@H](O)CN | 1.55 | 0.91 | 1.31 |  |
| CCCCCCC(=O)NC[C@H](N)C(=O)N[C@H](CC(=O)NN(C)CC(=O)O)[C@H]1C[C@H]1CN | 1.38 |  |  |  |
